Measured values reported in PubChem BioAssay (NCI).
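Method: 48-hour compound exposure of cells in 96-well plates, five concentrations, linear interpolation of endpoints. Definition used: TGI = concentration required for complete inhibition of growth.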

Tests used:
Assay in all cases: inhibition of tumour cell growth, NCI panel, 48 h
[1] = test system: 786-0 renal
[2] = test system: A498 renal
[3] = test system: A549 NSCLC
[4] = test system: ACHN renal
[5] = test system: CAKI-1 renal
[6] = test system: CCRF-CEM leukemia
[7] = test system: COLO 205 colon
[8] = test system: DU-145 prostate
[9] = test system: EKVX NSCLC
[10] = test system: HCC-2998 colon
[11] = test system: HCT-116 colon
[12] = test system: HCT-15 colon
[13] = test system: HL-60(TB) leukemia
[14] = test system: HOP-62 NSCLC
[15] = test system: HOP-92 NSCLC
[16] = test system: HT29 colon
[17] = test system: IGROV1 ovarian
[18] = test system: K-562 leukemia
[19] = test system: KM12 colon
[20] = test system: LOX IMVI melanoma
[21] = test system: M14 melanoma
[22] = test system: MALME-3M melanoma
[23] = test system: MCF7 breast
[24] = test system: MDA-MB-231 breast
[25] = test system: MDA-MB-435
[26] = test system: MDA-N
[27] = test system: MOLT-4 leukemia
[28] = test system: NCI-H226 lung
[29] = test system: NCI-H23 lung
[30] = test system: NCI-H460 lung
[31] = test system: NCI-H522 lung
[32] = test system: NCI/ADR-RES ovarian
[33] = test system: OVCAR-3 ovarian
[34] = test system: OVCAR-4 ovarian
[35] = test system: OVCAR-8 ovarian
[36] = test system: PC-3 prostate
[37] = test system: RPMI-8226 leukemia
[38] = test system: RXF 393 renal
[39] = test system: SF-268 CNS
[40] = test system: SF-295 CNS
[41] = test system: SF-539 CNS
[42] = test system: SK-MEL-2 melanoma
[43] = test system: SK-MEL-28 melanoma
[44] = test system: SK-MEL-5 melanoma
[45] = test system: SK-OV-3 ovarian
[46] = test system: SN12C renal
[47] = test system: SNB-19 CNS
[48] = test system: SNB-75 CNS
[49] = test system: SR leukemia
[50] = test system: SW-620 colon
[51] = test system: T-47D breast
[52] = test system: TK-10 renal
[53] = test system: U251 CNS
[54] = test system: UACC-257 melanoma
[55] = test system: UACC-62 melanoma
[56] = test system: UO-31 renal
[57] = test system: HS 578T breast
[58] = test system: OVCAR-5 ovarian

CSC(N)=Nc1cccc2ccccc12
TGI [1]: > 10 µM
TGI [2]: > 10 µM
TGI [3]: > 10 µM
TGI [4]: > 10 µM
TGI [5]: > 10 µM
TGI [6]: > 10 µM
TGI [7]: > 10 µM
TGI [8]: > 10 µM
TGI [9]: > 10 µM
TGI [10]: > 10 µM
TGI [11]: > 10 µM
TGI [12]: > 10 µM
TGI [13]: > 10 µM
TGI [14]: > 10 µM
TGI [15]: > 10 µM
TGI [16]: > 10 µM
TGI [17]: > 10 µM
TGI [18]: > 10 µM
TGI [19]: > 10 µM
TGI [20]: > 10 µM
TGI [21]: > 10 µM
TGI [22]: > 10 µM
TGI [23]: > 10 µM
TGI [24]: > 10 µM
TGI [25]: > 10 µM
TGI [26]: > 10 µM
TGI [27]: > 10 µM
TGI [28]: > 10 µM
TGI [29]: > 10 µM
TGI [30]: > 10 µM
TGI [31]: > 10 µM
TGI [32]: > 10 µM
TGI [33]: > 10 µM
TGI [34]: > 10 µM
TGI [35]: > 10 µM
TGI [36]: > 10 µM
TGI [37]: > 10 µM
TGI [38]: > 10 µM
TGI [39]: > 10 µM
TGI [40]: > 10 µM
TGI [41]: > 10 µM
TGI [42]: > 10 µM
TGI [43]: > 10 µM
TGI [44]: > 10 µM
TGI [45]: > 10 µM
TGI [46]: > 10 µM
TGI [47]: > 10 µM
TGI [48]: > 10 µM
TGI [49]: > 10 µM
TGI [50]: > 10 µM
TGI [51]: > 10 µM
TGI [52]: > 10 µM
TGI [53]: > 10 µM
TGI [54]: > 10 µM
TGI [55]: > 10 µM
TGI [56]: > 10 µM

C=C1C(=O)[C@@]23CC[C@@H]4[C@@]5(C)CCC[C@@]4(OC5=O)C2(C)CC[C@]1(OC)C3 (stereo partly specified)
TGI [1]: 1.17 µM
TGI [3]: 12.7 µM
TGI [4]: 3.98 µM
TGI [5]: 3.41 µM
TGI [6]: 0.436 µM
TGI [7]: 5.64 µM
TGI [8]: 18 µM
TGI [9]: 21.8 µM
TGI [10]: 1.37 µM
TGI [11]: 1.88 µM
TGI [14]: 4.56 µM
TGI [57]: 6.69 µM
TGI [17]: 4.76 µM
TGI [18]: 1.24 µM
TGI [19]: 6.85 µM
TGI [20]: 1.19 µM
TGI [21]: 4.25 µM
TGI [23]: 1.22 µM
TGI [25]: 3.22 µM
TGI [26]: 2.02 µM
TGI [27]: 1.98 µM
TGI [29]: 5.07 µM
TGI [30]: 6.92 µM
TGI [31]: 2.36 µM
TGI [32]: 6.59 µM
TGI [33]: 2.34 µM
TGI [58]: 3.69 µM
TGI [35]: 4 µM
TGI [36]: 2.44 µM
TGI [37]: 0.864 µM
TGI [39]: 7.2 µM
TGI [40]: 13.4 µM
TGI [41]: 3.21 µM
TGI [42]: 2.58 µM
TGI [43]: 3.66 µM
TGI [44]: 3.39 µM
TGI [46]: 4.92 µM
TGI [47]: 3.63 µM
TGI [48]: 3.07 µM
TGI [49]: 1.46 µM
TGI [50]: 3.23 µM
TGI [51]: 4.6 µM
TGI [52]: 3.18 µM
TGI [54]: 3.81 µM
TGI [56]: 3.19 µM

O=C1Cc2c([nH]c3ccc(Cl)cc23)-c2ccccc2N1
TGI [1]: > 100 µM
TGI [2]: > 100 µM
TGI [3]: > 100 µM
TGI [4]: > 100 µM
TGI [7]: > 100 µM
TGI [11]: > 100 µM
TGI [15]: > 100 µM
TGI [57]: > 100 µM
TGI [17]: > 100 µM
TGI [20]: > 100 µM
TGI [21]: > 100 µM
TGI [22]: > 100 µM
TGI [23]: > 100 µM
TGI [24]: > 100 µM
TGI [25]: > 100 µM
TGI [26]: > 100 µM
TGI [28]: > 100 µM
TGI [29]: > 100 µM
TGI [30]: > 100 µM
TGI [31]: > 100 µM
TGI [32]: > 100 µM
TGI [34]: > 100 µM
TGI [35]: > 100 µM
TGI [37]: > 100 µM
TGI [39]: > 100 µM
TGI [40]: > 100 µM
TGI [43]: > 100 µM
TGI [44]: > 100 µM
TGI [45]: > 100 µM
TGI [46]: > 100 µM
TGI [47]: > 100 µM
TGI [48]: > 100 µM
TGI [51]: > 100 µM
TGI [52]: > 100 µM
TGI [53]: > 100 µM
TGI [55]: > 100 µM
TGI [56]: > 100 µM

CNC(=O)CNC(=O)CCC(=O)OC
TGI [1]: > 100 µM
TGI [2]: > 100 µM
TGI [3]: > 100 µM
TGI [4]: > 100 µM
TGI [5]: > 100 µM
TGI [7]: > 100 µM
TGI [8]: > 100 µM
TGI [11]: > 100 µM
TGI [14]: > 100 µM
TGI [16]: > 100 µM
TGI [18]: > 100 µM
TGI [19]: > 100 µM
TGI [21]: > 100 µM
TGI [23]: > 100 µM
TGI [24]: > 100 µM
TGI [25]: > 100 µM
TGI [26]: > 100 µM
TGI [27]: > 100 µM
TGI [29]: > 100 µM
TGI [30]: > 100 µM
TGI [31]: > 100 µM
TGI [32]: > 100 µM
TGI [33]: > 100 µM
TGI [34]: > 100 µM
TGI [58]: > 100 µM
TGI [35]: > 100 µM
TGI [36]: > 100 µM
TGI [38]: > 100 µM
TGI [39]: > 100 µM
TGI [40]: > 100 µM
TGI [41]: > 100 µM
TGI [42]: > 100 µM
TGI [43]: > 100 µM
TGI [44]: > 100 µM
TGI [45]: > 100 µM
TGI [46]: > 100 µM
TGI [47]: > 100 µM
TGI [50]: > 100 µM
TGI [51]: > 100 µM
TGI [52]: > 100 µM
TGI [53]: > 100 µM
TGI [55]: > 100 µM
TGI [56]: > 100 µM
